Values quoted from earlier work as cited in US6485765B1, “Lactational performance of dairy cattle” (Church & Dwight Co., Inc., priority 2000, dated 2002).

Tested on: heat stressed dairy cows
Details: per every 1% increase in K, potassium carbonate as source of dietary K

Compound: O=C([O-])[O-].[K+].[K+] [potassium carbonate]
- increase of fat-corrected milk: 8.9 lbs/day
